PubChem BioAssay (NCI)
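Cultured in 96-well plates, cells were exposed to test compound for 48 hours across five concentrations. GI50 = concentration required for 50% inhibition of growth. At the TGI there is no net growth.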

How the values were obtained:
Experiment in all cases: DTP human tumour cell line panel, 48 h
SF-295 CNS = tested on: SF-295 CNS
TK-10 renal = tested on: TK-10 renal
786-0 renal = tested on: 786-0 renal
CCRF-CEM leukemia = tested on: CCRF-CEM leukemia
RXF 393 renal = tested on: RXF 393 renal
NCI-H522 lung = tested on: NCI-H522 lung
HCT-15 colon = tested on: HCT-15 colon
K-562 leukemia = tested on: K-562 leukemia
IGROV1 ovarian = tested on: IGROV1 ovarian
PC-3 prostate = tested on: PC-3 prostate
BT-549 breast = tested on: BT-549 breast
HOP-62 NSCLC = tested on: HOP-62 NSCLC
UACC-62 melanoma = tested on: UACC-62 melanoma
A498 renal = tested on: A498 renal
MALME-3M melanoma = tested on: MALME-3M melanoma
NCI-H460 lung = tested on: NCI-H460 lung
OVCAR-4 ovarian = tested on: OVCAR-4 ovarian
KM12 colon = tested on: KM12 colon
NCI/ADR-RES ovarian = tested on: NCI/ADR-RES ovarian
DU-145 prostate = tested on: DU-145 prostate
U251 CNS = tested on: U251 CNS
SR leukemia = tested on: SR leukemia
UACC-257 melanoma = tested on: UACC-257 melanoma
LOX IMVI melanoma = tested on: LOX IMVI melanoma
HL-60(TB) leukemia = tested on: HL-60(TB) leukemia
SW-620 colon = tested on: SW-620 colon
OVCAR-5 ovarian = tested on: OVCAR-5 ovarian
NCI-H23 lung = tested on: NCI-H23 lung
ACHN renal = tested on: ACHN renal
OVCAR-3 ovarian = tested on: OVCAR-3 ovarian
MDA-MB-231 breast = tested on: MDA-MB-231 breast
SNB-19 CNS = tested on: SNB-19 CNS
HCT-116 colon = tested on: HCT-116 colon
T-47D breast = tested on: T-47D breast
SF-268 CNS = tested on: SF-268 CNS
SNB-75 CNS = tested on: SNB-75 CNS
NCI-H226 lung = tested on: NCI-H226 lung
SF-539 CNS = tested on: SF-539 CNS
SK-MEL-28 melanoma = tested on: SK-MEL-28 melanoma
OVCAR-8 ovarian = tested on: OVCAR-8 ovarian
RPMI-8226 leukemia = tested on: RPMI-8226 leukemia
HS 578T breast = tested on: HS 578T breast
EKVX NSCLC = tested on: EKVX NSCLC
SK-MEL-2 melanoma = tested on: SK-MEL-2 melanoma
MDA-MB-435 = tested on: MDA-MB-435
HOP-92 NSCLC = tested on: HOP-92 NSCLC
SK-OV-3 ovarian = tested on: SK-OV-3 ovarian
A549 NSCLC = tested on: A549 NSCLC
HT29 colon = tested on: HT29 colon
CAKI-1 renal = tested on: CAKI-1 renal
COLO 205 colon = tested on: COLO 205 colon
SN12C renal = tested on: SN12C renal
SK-MEL-5 melanoma = tested on: SK-MEL-5 melanoma
HCC-2998 colon = tested on: HCC-2998 colon
M14 melanoma = tested on: M14 melanoma
MOLT-4 leukemia = tested on: MOLT-4 leukemia
MCF7 breast = tested on: MCF7 breast
UO-31 renal = tested on: UO-31 renal

CCOC(=O)c1c(NC(=O)c2cccc(C(F)(F)F)c2)sc2c1CCC(=O)C2
GI50 (SF-295 CNS): 3080 nM | TGI (SF-295 CNS): > 100 µM | GI50 (TK-10 renal): 5.09 µM | TGI (TK-10 renal): > 100 µM | GI50 (786-0 renal): 3.54 µM | TGI (786-0 renal): > 100 µM | GI50 (CCRF-CEM leukemia): 1030 nM | TGI (CCRF-CEM leukemia): > 100 µM | GI50 (RXF 393 renal): 3.36 µM | TGI (RXF 393 renal): 9.03 µM | GI50 (NCI-H522 lung): 514 nM | TGI (NCI-H522 lung): 6.81 µM | GI50 (HCT-15 colon): 652 nM | TGI (HCT-15 colon): > 100 µM | GI50 (K-562 leukemia): 0.488 µM | TGI (K-562 leukemia): > 100 µM | GI50 (IGROV1 ovarian): 2400 nM | TGI (IGROV1 ovarian): > 100 µM | GI50 (PC-3 prostate): 1310 nM | TGI (PC-3 prostate): > 100 µM | GI50 (BT-549 breast): 1610 nM | TGI (BT-549 breast): > 100 µM | GI50 (HOP-62 NSCLC): 5.2 µM | TGI (HOP-62 NSCLC): > 100 µM | GI50 (UACC-62 melanoma): 2110 nM | TGI (UACC-62 melanoma): > 100 µM | GI50 (A498 renal): > 100000 nM | TGI (A498 renal): > 100 µM | GI50 (MALME-3M melanoma): > 100000 nM | TGI (MALME-3M melanoma): > 100 µM | GI50 (NCI-H460 lung): 2660 nM | TGI (NCI-H460 lung): > 100 µM | GI50 (OVCAR-4 ovarian): 3140 nM | TGI (OVCAR-4 ovarian): > 100 µM | GI50 (KM12 colon): 2.88 µM | TGI (KM12 colon): > 100 µM | GI50 (NCI/ADR-RES ovarian): 3.06 µM | TGI (NCI/ADR-RES ovarian): > 100 µM | GI50 (DU-145 prostate): > 100 µM | TGI (DU-145 prostate): > 100 µM | GI50 (U251 CNS): 479 nM | TGI (U251 CNS): > 100 µM | GI50 (SR leukemia): 526 nM | TGI (SR leukemia): > 100 µM | GI50 (UACC-257 melanoma): > 100 µM | TGI (UACC-257 melanoma): > 100 µM | GI50 (LOX IMVI melanoma): 633 nM | TGI (LOX IMVI melanoma): > 100 µM | GI50 (HL-60(TB) leukemia): 1.9 µM | TGI (HL-60(TB) leukemia): > 100 µM | GI50 (SW-620 colon): 445 nM | TGI (SW-620 colon): > 100 µM | GI50 (OVCAR-5 ovarian): 2120 nM | TGI (OVCAR-5 ovarian): > 100 µM | GI50 (NCI-H23 lung): 3 µM | TGI (NCI-H23 lung): > 100 µM | GI50 (ACHN renal): 2650 nM | TGI (ACHN renal): > 100 µM | GI50 (OVCAR-3 ovarian): 3.53 µM | TGI (OVCAR-3 ovarian): > 100 µM | GI50 (MDA-MB-231 breast): 3.5 µM | TGI (MDA-MB-231 breast): > 100 µM | GI50 (SNB-19 CNS): 1530 nM | TGI (SNB-19 CNS): > 100 µM | GI50 (HCT-116 colon): 0.49 µM | TGI (HCT-116 colon): > 100 µM | GI50 (T-47D breast): 2.12 µM | TGI (T-47D breast): > 100 µM | GI50 (SF-268 CNS): 4.17 µM | TGI (SF-268 CNS): > 100 µM

CC(C)(O)c1cncc(-c2ccc3ncc(C#N)c(N4CCc5cc(F)c(Cl)cc54)c3c2)c1
GI50 (SF-295 CNS): 2380 nM | TGI (SF-295 CNS): 14.1 µM | GI50 (SNB-75 CNS): 1220 nM | TGI (SNB-75 CNS): 5.67 µM | GI50 (TK-10 renal): 8.33 µM | TGI (TK-10 renal): 40 µM | GI50 (786-0 renal): 3.86 µM | TGI (786-0 renal): > 100 µM | GI50 (NCI-H226 lung): 1770 nM | TGI (NCI-H226 lung): 15.4 µM | GI50 (CCRF-CEM leukemia): 4250 nM | TGI (CCRF-CEM leukemia): > 100 µM | GI50 (SF-539 CNS): 2880 nM | TGI (SF-539 CNS): 15.8 µM | GI50 (SK-MEL-28 melanoma): 3.39 µM | TGI (SK-MEL-28 melanoma): 41 µM | GI50 (NCI-H522 lung): 3950 nM | TGI (NCI-H522 lung): > 100 µM | GI50 (OVCAR-8 ovarian): 3.19 µM | TGI (OVCAR-8 ovarian): > 100 µM | GI50 (HCT-15 colon): 4280 nM | TGI (HCT-15 colon): > 100 µM | GI50 (K-562 leukemia): 7.09 µM | TGI (K-562 leukemia): > 100 µM | GI50 (IGROV1 ovarian): 1570 nM | TGI (IGROV1 ovarian): 6.55 µM | GI50 (PC-3 prostate): 2860 nM | TGI (PC-3 prostate): > 100 µM | GI50 (RPMI-8226 leukemia): 2920 nM | TGI (RPMI-8226 leukemia): 87.4 µM | GI50 (BT-549 breast): 2700 nM | TGI (BT-549 breast): 22.7 µM | GI50 (HOP-62 NSCLC): 2.7 µM | TGI (HOP-62 NSCLC): 57.3 µM | GI50 (UACC-62 melanoma): 1840 nM | TGI (UACC-62 melanoma): 10.2 µM | GI50 (A498 renal): 2070 nM | TGI (A498 renal): 6.17 µM | GI50 (HS 578T breast): 1230 nM | TGI (HS 578T breast): 4.7 µM | GI50 (MALME-3M melanoma): 1990 nM | TGI (MALME-3M melanoma): 7.06 µM | GI50 (EKVX NSCLC): 2550 nM | TGI (EKVX NSCLC): 11.3 µM | GI50 (NCI-H460 lung): 3240 nM | TGI (NCI-H460 lung): > 100 µM | GI50 (OVCAR-4 ovarian): 2840 nM | TGI (OVCAR-4 ovarian): 18.5 µM | GI50 (KM12 colon): 6.81 µM | TGI (KM12 colon): > 100 µM | GI50 (NCI/ADR-RES ovarian): 4.4 µM | TGI (NCI/ADR-RES ovarian): 98.2 µM | GI50 (DU-145 prostate): 3.71 µM | TGI (DU-145 prostate): > 100 µM | GI50 (SK-MEL-2 melanoma): 4.26 µM | TGI (SK-MEL-2 melanoma): 21.6 µM | GI50 (MDA-MB-435): 3.36 µM | TGI (MDA-MB-435): 32.4 µM | GI50 (U251 CNS): 4710 nM | TGI (U251 CNS): > 100 µM | GI50 (HOP-92 NSCLC): 1790 nM | TGI (HOP-92 NSCLC): 7.79 µM | GI50 (SR leukemia): 3520 nM | TGI (SR leukemia): > 100 µM | GI50 (SK-OV-3 ovarian): 1830 nM | TGI (SK-OV-3 ovarian): 8.64 µM | GI50 (A549 NSCLC): 3.64 µM | TGI (A549 NSCLC): > 100 µM | GI50 (HT29 colon): 3.31 µM | TGI (HT29 colon): > 100 µM | GI50 (UACC-257 melanoma): 4.22 µM | TGI (UACC-257 melanoma): 63.3 µM | GI50 (LOX IMVI melanoma): 1810 nM | TGI (LOX IMVI melanoma): 17.3 µM | GI50 (HL-60(TB) leukemia): 6.06 µM | TGI (HL-60(TB) leukemia): 28.2 µM | GI50 (SW-620 colon): 4510 nM | TGI (SW-620 colon): > 100 µM | GI50 (CAKI-1 renal): 2370 nM | TGI (CAKI-1 renal): > 100 µM | GI50 (OVCAR-5 ovarian): 3300 nM | TGI (OVCAR-5 ovarian): 82.7 µM | GI50 (NCI-H23 lung): 3.6 µM | TGI (NCI-H23 lung): 64.3 µM | GI50 (COLO 205 colon): 4.48 µM | TGI (COLO 205 colon): 26.7 µM | GI50 (ACHN renal): 2890 nM | TGI (ACHN renal): > 100 µM | GI50 (OVCAR-3 ovarian): 2.91 µM | TGI (OVCAR-3 ovarian): 40.3 µM | GI50 (MDA-MB-231 breast): 2.6 µM | TGI (MDA-MB-231 breast): 30.4 µM | GI50 (SN12C renal): 2030 nM | TGI (SN12C renal): > 100 µM | GI50 (SNB-19 CNS): 4080 nM | TGI (SNB-19 CNS): > 100 µM | GI50 (SK-MEL-5 melanoma): 3.95 µM | TGI (SK-MEL-5 melanoma): 13.8 µM | GI50 (HCT-116 colon): 5.84 µM | TGI (HCT-116 colon): > 100 µM | GI50 (HCC-2998 colon): 3.75 µM | TGI (HCC-2998 colon): 63.8 µM | GI50 (M14 melanoma): 3.79 µM | TGI (M14 melanoma): > 100 µM | GI50 (T-47D breast): 4.06 µM | TGI (T-47D breast): 76.5 µM | GI50 (MOLT-4 leukemia): 3.11 µM | TGI (MOLT-4 leukemia): > 100 µM | GI50 (MCF7 breast): 6 µM | TGI (MCF7 breast): 53.4 µM | GI50 (SF-268 CNS): 3.84 µM | TGI (SF-268 CNS): > 100 µM | GI50 (UO-31 renal): 554 nM | TGI (UO-31 renal): 8.69 µM
